In US8394969B2, “Cyclic benzimidazole derivatives useful as anti-diabetic agents” (Merck Sharp & Dohme Corp., priority 2008, dated 2013):
Where a name gives a salt, the structure may show the parent alone.

These molecules were tested against recombinant human AMPK complex 1 (containing α1β1γ1) (Homo sapiens, UniProt Q13131+Q9Y478) (assay: […] (in vitro AMPK activation assay)). Details: recombinant human AMPK complex 1 (α1β1γ1); basal activity subtracted; read-out: % Maximum AMP Activation of human AMPK Complex 1.
Chain of recombinant human AMPK complex 1 (containing α1β1γ1) (Q13131 whole entry): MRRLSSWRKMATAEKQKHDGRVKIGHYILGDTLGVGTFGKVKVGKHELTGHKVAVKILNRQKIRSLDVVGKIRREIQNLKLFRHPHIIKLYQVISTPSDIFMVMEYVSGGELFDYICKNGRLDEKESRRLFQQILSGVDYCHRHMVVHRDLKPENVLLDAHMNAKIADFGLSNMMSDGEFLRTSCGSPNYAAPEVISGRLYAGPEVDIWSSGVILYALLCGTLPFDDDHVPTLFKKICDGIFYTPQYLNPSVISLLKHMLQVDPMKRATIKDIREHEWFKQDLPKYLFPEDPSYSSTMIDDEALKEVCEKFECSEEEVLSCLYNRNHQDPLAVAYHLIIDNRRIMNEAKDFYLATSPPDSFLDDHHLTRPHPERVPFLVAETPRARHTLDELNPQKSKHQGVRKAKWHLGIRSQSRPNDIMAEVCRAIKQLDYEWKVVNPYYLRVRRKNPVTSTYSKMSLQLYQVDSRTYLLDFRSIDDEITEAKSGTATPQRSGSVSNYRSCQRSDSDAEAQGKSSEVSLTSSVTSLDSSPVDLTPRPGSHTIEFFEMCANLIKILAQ
Chain of recombinant human AMPK complex 1 (containing α1β1γ1) (Q9Y478 whole entry): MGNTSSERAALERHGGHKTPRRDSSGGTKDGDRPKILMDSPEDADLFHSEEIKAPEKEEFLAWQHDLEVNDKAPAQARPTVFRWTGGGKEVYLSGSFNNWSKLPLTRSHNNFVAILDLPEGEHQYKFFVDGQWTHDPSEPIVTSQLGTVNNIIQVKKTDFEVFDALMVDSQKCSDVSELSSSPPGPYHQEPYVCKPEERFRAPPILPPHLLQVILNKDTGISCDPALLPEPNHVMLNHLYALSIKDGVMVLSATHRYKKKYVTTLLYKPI
Chain of recombinant human AMPK complex 1 (containing α1β1γ1) (P54619 whole entry partner): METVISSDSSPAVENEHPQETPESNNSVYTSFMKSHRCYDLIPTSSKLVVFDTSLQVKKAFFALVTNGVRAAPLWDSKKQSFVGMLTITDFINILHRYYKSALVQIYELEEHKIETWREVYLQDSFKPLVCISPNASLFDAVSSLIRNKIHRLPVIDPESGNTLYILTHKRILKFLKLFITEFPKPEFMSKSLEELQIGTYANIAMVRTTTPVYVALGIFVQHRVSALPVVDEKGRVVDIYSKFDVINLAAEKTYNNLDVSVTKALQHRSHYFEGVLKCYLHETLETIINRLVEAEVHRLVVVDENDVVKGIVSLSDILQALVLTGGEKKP
Type: biochemical
`Cc1ccc(Oc2nc3cc(C#Cc4ccc(-c5nc6ccccc6o5)cc4)c(Cl)cc3[nH]2)cc1C(=O)O` [Example 81, 5-[5-(4-Benzooxazol-2-yl-phenylethynyl)-6-chloro-1H-benzoimidazol-2-yloxy]-2-methyl-benzoic acid] was tested, and the Emax was over 80%. For `Cc1ccc(Oc2nc3cc(-c4cnc5c(c4)OCCN5C)c(Cl)cc3[nH]2)cc1C(=O)O` [Example 143, 2-(3-carboxy-4-methylphenoxy)-6-chloro-5-(4-methyl-3,4-dihydro-2H-pyrido[3,2-b] [1,4]oxazin-7-yl)-1H-3,1-benzimidazol-3-ium trifluoroacetate], the Emax was over 80%. Work on `COC(=O)c1cc(Oc2nc3cc(C#Cc4ccccc4F)c(Cl)cc3[nH]2)ccc1C` [Example 119, 5-[6-Chloro-5-(2-fluoro-phenylethynyl)-1H-benzoimidazol-2-yloxy]-2-methyl-benzoic acid methyl ester] yielded an Emax of over 80%. With `COc1ccc(C#Cc2cc3nc(Oc4ccc(C)c(C(=O)O)c4)[nH]c3cc2Cl)cc1` [Example 121, 5-[6-Chloro-5-(4-methoxy-phenylethynyl)-1H-benzoimidazol-2-yloxy]-2-methyl-benzoic acid] the Emax was over 80%. `COc1ccc(C(=O)O)cc1Oc1nc2cc(-c3ccc(-c4ccccc4)cc3)c(Cl)cc2[nH]1` [Example 211, 3-(5-Biphenyl-4-yl-6-chloro-1H-benzoimidazol-2-yloxy)-4-methoxy-benzoic acid] showed an Emax of over 80%. Work on `Cc1cccc(C#Cc2cc3nc(Oc4ccc(C)c(C(=O)O)c4)[nH]c3cc2Cl)c1` [Example 97, 5-(6-Chloro-5-m-tolylethynyl-1H-benzoimidazol-2-yloxy)-2-methyl-benzoic acid] yielded an Emax of over 80%. With `O=C(O)c1cc(Oc2nc3cc(-c4ccccc4)c(Cl)cc3[nH]2)ccc1Cl` [Example 61, 2-Chloro-5-(6-chloro-5-phenyl-1H-benzoimidazol-2-yloxy)-benzoic acid] the Emax was over 80%. `Cc1ccc(Oc2nc3cc(-c4ccc5c(c4)CCN5)c(Cl)cc3[nH]2)cc1C(=O)O` [Example 285, 5-[6-Chloro-5-(2,3-dihydro-1H-indol-5-yl)-1H-benzoimidazol-2-yloxy]-2-methyl-benzoic acid] showed an Emax of over 80%. `CC(=O)c1ccc(-c2cc3nc(Oc4cc(C)c(C)c(C(=O)O)c4)[nH]c3cc2Cl)cc1` [Example 317, 5-[5-(4-Acetyl-phenyl)-6-chloro-1H-benzoimidazol-2-yloxy]-2,3-dimethyl-benzoic acid] showed an Emax of over 80%. `Cc1ccc(Oc2nc3cc(-c4cccc(-c5ccccc5)c4)c(Cl)cc3[nH]2)cc1C(=O)O` [Example 302, 5-(5-Biphenyl-3-yl-6-chloro-1H-benzoimidazol-2-yloxy)-2-methyl-benzoic acid] was tested, and the Emax was over 80%. For `COc1ccc2cc(-c3cc4nc(Oc5ccc(C)c(C(=O)O)c5)[nH]c4cc3Cl)ccc2n1` [Example 146, 5-[6-Chloro-5-(2-methoxy-quinolin-6-yl)-1H-benzoimidazol-2-yloxy]-2-methyl-benzoic acid], the Emax was over 80%. Work on `Cc1ccc(Oc2nc3cc(-c4ccc(-c5ccc(O)cc5)cc4)c(Cl)cc3[nH]2)cc1C(=O)O` [Example 104, 5-[6-Chloro-5-(4-hydroxy-biphenyl-4-yl)-1H-benzoimidazol-2-yloxy]-2-methyl-benzoic acid] yielded an Emax of over 80%. `Cc1ccc(Oc2nc3cc(-c4cn[nH]c4)c(Cl)cc3[nH]2)cc1C(=O)O` [Example 160, 5-[6-Chloro-5-(1H-pyrazol-4-yl)-1H-benzoimidazol-2-yloxy]-2-methyl-benzoic acid] gave an Emax of over 80%. For `O=C(O)CCc1cccc(Oc2nc3cc(C#Cc4ccccc4)c(Cl)cc3[nH]2)c1` [Example 24, 3-[3-(6-Chloro-5-phenylethynyl-1H-benzoimidazol-2-yloxy)-phenyl]-propionic acid], the Emax was over 80%. In the case of `Cc1ccc(Oc2nc3cc(-c4ccc(-c5cccc(Cl)c5)cc4)c(Cl)cc3[nH]2)cc1C(=O)O` [Example 186, 5-{[6-chloro-5-(3′-chlorobiphenyl-4-yl)-1H-benzimidazol-2-yl]oxy}-2-methylbenzoic acid], the Emax is reported as over 80%. `Cc1ccc(Oc2nc3cc(C#Cc4ccncc4)c(Cl)cc3[nH]2)cc1C(=O)O` [Example 87, 5-(6-Chloro-5-pyridin-4-ylethynyl-1H-benzoimidazol-2-yloxy)-2-methyl-benzoic acid] showed an Emax of over 80%. In the case of `COc1ccc(C#Cc2cc3nc(Oc4ccc(C)c(C(=O)O)c4)[nH]c3cc2Cl)cn1` [Example 129, 5-[6-Chloro-5-(6-methoxy-pyridin-3-ylethynyl)-1H-benzoimidazol-2-yloxy]-2-methyl-benzoic acid], the Emax is reported as over 80%. Molecule `Cc1ccc(Oc2nc3cc(-c4ccc5c(c4)cc(C)n5C)c(Cl)cc3[nH]2)cc1C(=O)O` [Example 289, 5-[6-Chloro-5-(1,2-dimethyl-1H-indol-5-yl)-1H-benzoimidazol-2-yloxy]-2-methyl-benzoic acid] has an Emax of over 80%. Work on `Cc1ccc(Oc2nc3cc(-c4ccc5[nH]ncc5c4)c(Cl)cc3[nH]2)cc1C(=O)O` [Example 153, 5-[6-Chloro-5-(1H-indazol-5-yl)-1H-benzoimidazol-2-yloxy]-2-methyl-benzoic acid] yielded an Emax of over 80%. With `Cc1ccc(Oc2nc3cc(-c4cc5ccccc5s4)c(Cl)cc3[nH]2)cc1C(=O)O` [Example 355, 5-(5-Benzo[b]thiophen-2-yl-6-chloro-1H-benzoimidazol-2-yloxy)-2-methyl-benzoic acid] the Emax was over 80%. Work on `Cc1ccc(Oc2nc3cc(-c4ccc5c(ccn5CCO)c4)c(Cl)cc3[nH]2)cc1C(=O)O` [Example 263, 5-({6-chloro-5-[1-(2-hydroxyethyl)-1H-indol-5-yl]-1H-benzimidazol-2-yl}oxy)-2-methylbenzoic acid] yielded an Emax of over 80%. With `Cc1ccc(Oc2nc3cc(-c4cccc5c4CCN5C(C)C)c(Cl)cc3[nH]2)cc1C(=O)O` [Example 324, 5-{[6-chloro-5-(1-isopropyl-2,3-dihydro-1H-indol-4-yl)-1H-benzimidazol-2-yl]oxy}-2-methylbenzoic acid] the Emax was over 80%. Work on `Cc1ccc(Oc2nc3cc(-c4ccc(N5CCOCC5)nc4)c(Cl)cc3[nH]2)cc1C(=O)O` [Example 173, 5-[6-Chloro-5-(6-morpholin-4-yl-pyridin-3-yl)-1H-benzoimidazol-2-yloxy]-2-methyl-benzoic acid] yielded an Emax of over 80%. With `Cc1cc(Oc2nc3cc(-c4ccc5c(ccn5C)c4)c(Cl)cc3[nH]2)cc(C(=O)O)c1C` [Example 311, 5-[6-Chloro-5-(1-methyl-1H-indol-5-yl)-1H-benzoimidazol-2-yloxy]-2,3-dimethyl-benzoic acid] the Emax was over 80%. `O=C(O)c1cc(Oc2nc3cc(C#Cc4ccccc4)c(Cl)cc3[nH]2)cc(C(=O)O)c1` [Example 48, 5-(6-Chloro-5-phenylethynyl-1H-benzoimidazol-2-yloxy)-isophthalic acid] was tested, and the Emax was over 80%. Work on `O=C(O)c1ccc(Oc2nc3cc(-c4ccc(-c5ccccc5)cc4)c(Cl)cc3[nH]2)cc1` [Example 38, 4-(5-Biphenyl-4-yl-6-chloro-1H-benzoimidazol-2-yloxy)-benzoic acid] yielded an Emax of over 80%. With `Cc1ccc(Oc2nc3cc(-c4ccc(CN(C)C)cc4)c(Cl)cc3[nH]2)cc1C(=O)O` [Example 294, {4-[2-(3-carboxy-4-methylphenoxy)-6-chloro-1H-benzimidazol-5-yl]phenyl}-N,N-dimethylmethanaminium trifluoroacetate] the Emax was over 80%. For `Cc1ccnc(-c2cc3nc(Oc4ccc(C)c(C(=O)O)c4)[nH]c3cc2Cl)c1` [Example 335, 2-(3-carboxy-4-methylphenoxy)-6-chloro-5-(4-methylpyridin-2-yl)-1H-3,1-benzimidazol-3-ium formate], the Emax was over 80%. `Cc1ccc(Oc2nc3cc(-c4cccc5ncccc45)c(Cl)cc3[nH]2)cc1C(=O)O` [Example 333, 2-(3-carboxy-4-methylphenoxy)-6-chloro-5-quinolin-5-yl-1H-3,1-benzimidazol-3-ium formate] gave an Emax of over 80%. Molecule `Cc1ccc(Oc2nc3cc(-c4ccc5c(ccn5CC(F)(F)F)c4)c(Cl)cc3[nH]2)cc1C(=O)O` [Example 351, 5-{6-Chloro-5-[1-(2,2,2-trifluoro-ethyl)-1H-indol-5-yl]-1H-benzoimidazol-2-yloxy}-2-methyl-benzoic acid] has an Emax of over 80%. Molecule `Cc1ccc(Oc2nc3cc(C#Cc4cncn4C)c(Cl)cc3[nH]2)cc1C(=O)O` [Example 134, 5-[6-Chloro-5-(3-methyl-3H-imidazol-4-ylethynyl)-1H-benzoimidazol-2-yloxy]-2-methyl-benzoic acid] has an Emax of over 80%. In the case of `COc1cc(-c2cc3nc(Oc4ccc(C)c(C(=O)O)c4)[nH]c3cc2Cl)ccc1O` [Example 255, 2-(3-carboxy-4-methylphenoxy)-6-chloro-5-(4-hydroxy-3-methoxyphenyl)-1H-3,1-benzimidazol-3-ium trifluoroacetate], the Emax is reported as over 80%. `Cc1ccc(Oc2nc3cc(-c4ccc(-c5ccccc5)cc4)ccc3[nH]2)cc1C(=O)O` [Example 207, 5-(5-Biphenyl-4-yl-1H-benzoimidazol-2-yloxy)-2-methyl-benzoic acid] gave an Emax of over 80%. `Cc1ccc(Oc2nc3cc(-c4ccc5c(c4)cc(-c4ccccc4)n5C)c(Cl)cc3[nH]2)cc1C(=O)O` [Example 277, 5-[6-Chloro-5-(1-methyl-2-phenyl-1H-indol-5-yl)-1H-benzoimidazol-2-yloxy]-2-methyl-benzoic acid] showed an Emax of over 80%. `Cc1ccc(Oc2nc3cc(-c4ccc(C(C)N)cc4)c(Cl)cc3[nH]2)cc1C(=O)O` (stereo not shown) [Example 293, 1-{4-[2-(3-carboxy-4-methylphenoxy)-6-chloro-1H-benzimidazol-5-yl]phenyl}ethanaminium trifluoroacetate] was tested, and the Emax was over 80%. For `Cc1[nH]c2ccc(Oc3nc4cc(-c5ccc(-c6ccccc6)cc5)c(Cl)cc4[nH]3)cc2c1C(=O)O` [Example 5, 5-(5-Biphenyl-4-yl-6-chloro-1H-benzoimidazol-2-yloxy)-2-methyl-1H-indole-3-carboxylic acid], the Emax was over 80%.

Same assay, conditions: recombinant human AMPK complex 1 (α1β1γ1); read-out: EC50
For `Cc1ccc(Oc2nc3cc(-c4ccc(N5CCCC5)cc4)c(Cl)cc3[nH]2)cc1C(=O)O` [Example 231, 5-{[6-chloro-5-(4-pyrrolidin-1-ylphenyl)-1H-benzimidazol-2-yl]oxy}-2-methylbenzoic acid], the EC50 was 7 nM.
